Remaining activity data for one compound are collected here from patent US12606540B2, “Triazolone compound” (MEDSHINE DISCOVERY INC., priority 2020, dated 2026).

Experiment in all cases: Eurofins KinaseProfiler kinase selectivity
What all share (assay type): biochemical

Test [1] concerns the target T1, CDK2/cyclinA(h) (Homo sapiens, UniProt P24941).
T1 construct: purchased Eurofins (KinaseProfiler platform)
To be noted: compound at 1 μM; ATP 45 μM; read-out: Residual enzyme activity. The protocol:
(§1) This experiment aims to study the activity and selectivity of the compounds towards kinases selected from the Eurofins KinaseProfiler™ platform. The compounds against each selected kinase were tested using the KinaseProfiler™ experimental procedure of Eurofins standard, which follows the relevant standard operating procedures. Protein kinases (except ATM(h) and DNA-PK(h)) were tested by […], while lipid kinases, ATM(h), ATR/ATRIP(h) and DNA-PK(h) were tested by HRTF®.
(§2) Compound powders were prepared into 10 mM mother liquor through 100% DMSO solution and then diluted to 50× liquid.
(§3) An appropriate amount of 50× storage solution of the test compound was taken into the test wells, and then the kinase and substrate were added and mixed well. A certain concentration of ATP was added to start the reaction.
(§4) Data were processed using custom in-house analysis software.
(§5) The kinase off-target study in vitro of compound 5 of the present disclosure was carried out to evaluate the inhibitory activity against 15 common kinases at a concentration of 1 μM of the drug, and the results are as shown in Table 6.

Test [2] addresses T2, Abl(h) (Homo sapiens, UniProt P00519).
T2 construct: purchased Eurofins (KinaseProfiler platform)
To be noted: compound at 1 μM; ATP 45 μM; read-out: Residual enzyme activity. The protocol: as §1, §2, §3, §4, §5

For test [3], the target named is T3, ALK(h) (Homo sapiens, UniProt Q9UM73).
T3 construct: purchased Eurofins (KinaseProfiler platform)
The settings on record: compound at 1 μM; ATP 200 μM; read-out: Residual enzyme activity. The protocol: as §1, §2, §3, §4, §5

The target of test [4] is T4, GSK3β(h) (Homo sapiens, UniProt P49841).
T4 construct: purchased Eurofins (KinaseProfiler platform)
The settings on record: compound at 1 μM; ATP 15 μM; read-out: Residual enzyme activity. As to the method:
as §1, §2, §3, §4, §5

Test [5] addresses T5, TNIK(h) (Homo sapiens, UniProt Q9UKE5).
T5 construct: purchased Eurofins (KinaseProfiler platform)
To be noted: compound at 1 μM; ATP 70 μM; read-out: Residual enzyme activity. The protocol:
as §1, §2, §3, §4, §5

T3 sequence (Q9UM73 19-1620): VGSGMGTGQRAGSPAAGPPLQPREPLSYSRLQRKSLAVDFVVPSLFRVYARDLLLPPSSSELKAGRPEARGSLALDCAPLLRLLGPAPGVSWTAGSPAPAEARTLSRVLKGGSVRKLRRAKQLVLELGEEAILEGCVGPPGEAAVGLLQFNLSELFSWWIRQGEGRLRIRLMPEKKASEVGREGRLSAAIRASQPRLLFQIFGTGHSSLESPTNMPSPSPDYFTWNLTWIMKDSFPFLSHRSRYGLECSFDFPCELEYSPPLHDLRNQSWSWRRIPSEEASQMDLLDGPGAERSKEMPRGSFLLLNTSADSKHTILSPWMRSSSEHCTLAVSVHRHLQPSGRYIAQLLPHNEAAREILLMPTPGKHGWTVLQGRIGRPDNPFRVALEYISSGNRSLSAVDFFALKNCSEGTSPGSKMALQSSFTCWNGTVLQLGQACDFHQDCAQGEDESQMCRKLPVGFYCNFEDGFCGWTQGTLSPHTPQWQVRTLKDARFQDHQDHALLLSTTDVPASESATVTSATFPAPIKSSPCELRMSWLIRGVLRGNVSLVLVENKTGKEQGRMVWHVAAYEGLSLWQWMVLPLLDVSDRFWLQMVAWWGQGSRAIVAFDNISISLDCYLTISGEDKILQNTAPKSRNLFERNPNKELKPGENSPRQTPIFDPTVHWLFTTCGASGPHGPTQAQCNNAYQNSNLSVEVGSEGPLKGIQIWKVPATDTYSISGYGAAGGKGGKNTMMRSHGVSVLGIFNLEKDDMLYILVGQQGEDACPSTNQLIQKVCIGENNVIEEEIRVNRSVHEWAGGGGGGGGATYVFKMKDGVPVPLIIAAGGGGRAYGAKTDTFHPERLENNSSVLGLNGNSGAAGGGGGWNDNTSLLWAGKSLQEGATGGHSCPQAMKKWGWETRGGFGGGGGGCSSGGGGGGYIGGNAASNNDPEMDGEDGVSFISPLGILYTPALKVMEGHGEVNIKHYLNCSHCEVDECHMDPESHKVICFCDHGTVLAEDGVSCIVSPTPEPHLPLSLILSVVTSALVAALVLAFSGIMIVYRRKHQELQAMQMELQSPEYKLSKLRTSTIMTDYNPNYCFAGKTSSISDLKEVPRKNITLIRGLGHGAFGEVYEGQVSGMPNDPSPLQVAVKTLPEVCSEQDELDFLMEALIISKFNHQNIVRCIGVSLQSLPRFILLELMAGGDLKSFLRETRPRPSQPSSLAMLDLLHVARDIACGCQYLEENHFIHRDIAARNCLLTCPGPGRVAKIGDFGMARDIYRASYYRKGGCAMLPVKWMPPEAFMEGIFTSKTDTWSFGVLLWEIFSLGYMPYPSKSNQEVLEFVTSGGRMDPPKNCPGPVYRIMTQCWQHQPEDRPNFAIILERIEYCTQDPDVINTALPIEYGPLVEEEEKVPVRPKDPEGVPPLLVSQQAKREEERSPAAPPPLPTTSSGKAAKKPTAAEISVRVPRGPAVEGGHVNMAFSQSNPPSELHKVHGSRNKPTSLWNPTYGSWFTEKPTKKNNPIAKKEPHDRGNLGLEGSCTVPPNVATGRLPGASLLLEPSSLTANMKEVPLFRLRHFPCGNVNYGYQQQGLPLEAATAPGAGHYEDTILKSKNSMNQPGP
T5 sequence (Q9UKE5 whole entry): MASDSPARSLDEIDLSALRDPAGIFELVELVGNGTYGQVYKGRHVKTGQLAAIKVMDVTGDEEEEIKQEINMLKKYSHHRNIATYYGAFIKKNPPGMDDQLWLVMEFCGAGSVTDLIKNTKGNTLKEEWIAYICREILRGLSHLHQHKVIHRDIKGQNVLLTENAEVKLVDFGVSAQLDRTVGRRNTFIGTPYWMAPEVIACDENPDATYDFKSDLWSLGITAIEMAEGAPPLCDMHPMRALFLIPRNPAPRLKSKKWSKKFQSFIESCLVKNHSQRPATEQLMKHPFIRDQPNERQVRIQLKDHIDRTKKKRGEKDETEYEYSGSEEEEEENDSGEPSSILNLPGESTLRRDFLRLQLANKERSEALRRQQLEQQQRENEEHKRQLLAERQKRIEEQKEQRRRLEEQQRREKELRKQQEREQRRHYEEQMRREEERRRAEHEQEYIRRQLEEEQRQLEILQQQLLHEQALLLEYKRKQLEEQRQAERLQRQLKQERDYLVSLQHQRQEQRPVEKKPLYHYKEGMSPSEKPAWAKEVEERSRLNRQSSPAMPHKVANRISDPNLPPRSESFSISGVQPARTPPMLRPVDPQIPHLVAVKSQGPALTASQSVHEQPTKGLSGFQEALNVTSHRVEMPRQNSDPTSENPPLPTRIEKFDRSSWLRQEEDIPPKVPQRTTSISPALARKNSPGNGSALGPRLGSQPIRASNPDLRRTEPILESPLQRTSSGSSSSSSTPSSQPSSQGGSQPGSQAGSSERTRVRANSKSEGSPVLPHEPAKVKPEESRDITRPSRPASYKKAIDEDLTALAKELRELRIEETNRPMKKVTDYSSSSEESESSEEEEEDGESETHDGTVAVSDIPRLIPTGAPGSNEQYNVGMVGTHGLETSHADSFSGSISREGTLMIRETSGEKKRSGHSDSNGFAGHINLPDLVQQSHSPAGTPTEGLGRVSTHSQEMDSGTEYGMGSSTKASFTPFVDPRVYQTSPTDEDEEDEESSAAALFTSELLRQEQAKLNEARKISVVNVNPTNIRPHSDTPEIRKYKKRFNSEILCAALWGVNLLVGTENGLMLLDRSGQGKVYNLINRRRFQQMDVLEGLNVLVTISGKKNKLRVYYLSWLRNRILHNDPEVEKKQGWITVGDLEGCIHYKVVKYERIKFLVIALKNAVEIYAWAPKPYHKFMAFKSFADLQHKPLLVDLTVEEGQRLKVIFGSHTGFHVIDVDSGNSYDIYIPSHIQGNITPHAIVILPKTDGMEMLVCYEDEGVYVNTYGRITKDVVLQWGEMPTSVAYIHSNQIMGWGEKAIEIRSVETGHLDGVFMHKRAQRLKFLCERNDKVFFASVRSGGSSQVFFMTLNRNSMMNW
T4 sequence (P49841 whole entry): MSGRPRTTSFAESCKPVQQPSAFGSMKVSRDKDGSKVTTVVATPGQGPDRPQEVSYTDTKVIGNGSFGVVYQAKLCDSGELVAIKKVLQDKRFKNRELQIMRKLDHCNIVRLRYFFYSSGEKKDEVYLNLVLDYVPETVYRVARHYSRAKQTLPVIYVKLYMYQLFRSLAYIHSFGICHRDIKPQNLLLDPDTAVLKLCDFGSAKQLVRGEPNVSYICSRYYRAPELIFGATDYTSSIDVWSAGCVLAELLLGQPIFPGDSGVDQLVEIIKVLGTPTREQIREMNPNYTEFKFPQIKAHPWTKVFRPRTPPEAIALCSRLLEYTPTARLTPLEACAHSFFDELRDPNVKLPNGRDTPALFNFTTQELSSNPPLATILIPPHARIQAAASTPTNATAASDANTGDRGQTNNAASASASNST
T2 sequence (P00519 whole entry): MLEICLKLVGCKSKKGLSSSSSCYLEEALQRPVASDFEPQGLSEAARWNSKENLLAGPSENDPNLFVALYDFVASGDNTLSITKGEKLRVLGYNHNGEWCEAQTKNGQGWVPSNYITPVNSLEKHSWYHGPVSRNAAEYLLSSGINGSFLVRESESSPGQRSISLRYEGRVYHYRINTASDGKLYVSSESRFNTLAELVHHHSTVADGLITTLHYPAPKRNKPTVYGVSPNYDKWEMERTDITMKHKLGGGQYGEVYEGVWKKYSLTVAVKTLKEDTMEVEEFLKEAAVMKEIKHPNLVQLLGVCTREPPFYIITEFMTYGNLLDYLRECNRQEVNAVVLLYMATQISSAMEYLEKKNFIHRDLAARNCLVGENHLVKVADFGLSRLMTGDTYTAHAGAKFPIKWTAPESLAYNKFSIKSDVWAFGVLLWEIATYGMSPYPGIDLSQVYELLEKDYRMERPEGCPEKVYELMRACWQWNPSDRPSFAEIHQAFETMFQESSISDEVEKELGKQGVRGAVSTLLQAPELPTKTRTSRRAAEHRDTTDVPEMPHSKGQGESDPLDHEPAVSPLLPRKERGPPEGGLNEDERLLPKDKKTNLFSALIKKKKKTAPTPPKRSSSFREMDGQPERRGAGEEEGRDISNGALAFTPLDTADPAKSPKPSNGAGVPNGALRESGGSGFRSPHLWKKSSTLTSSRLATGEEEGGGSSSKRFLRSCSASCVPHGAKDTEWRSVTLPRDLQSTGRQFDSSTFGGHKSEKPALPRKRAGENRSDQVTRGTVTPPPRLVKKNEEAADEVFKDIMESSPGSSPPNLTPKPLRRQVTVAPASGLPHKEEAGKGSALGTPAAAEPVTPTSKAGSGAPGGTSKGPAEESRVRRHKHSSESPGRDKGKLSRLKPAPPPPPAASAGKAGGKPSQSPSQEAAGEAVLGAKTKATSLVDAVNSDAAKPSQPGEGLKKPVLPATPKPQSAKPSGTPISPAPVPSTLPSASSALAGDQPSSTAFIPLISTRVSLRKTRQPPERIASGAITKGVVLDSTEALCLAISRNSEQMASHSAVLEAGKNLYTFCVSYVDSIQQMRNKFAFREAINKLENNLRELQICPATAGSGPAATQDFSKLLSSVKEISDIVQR

For the compound `CCn1c(CO)nn(-c2cc(O[C@@H](C)C(F)(F)F)c(/C(F)=C/c3ncccc3Cl)cc2F)c1=O` [Compound 5], the remaining activity at 1 µM in test [1] is 72%; in test [2], 88%; in test [3], 94%; in test [4] it was 126%; in test [5], 84%.
